Tested on: DOHH2 cells
Assay: Cell proliferation assay in DOHH2 cells (MTS)
Type: cell-based
Procedure: To investigate whether a compound is able to inhibit the activity of BTK in cells, a mechanism-based assay using DOHH2 (DSMZ catalog #: ACC47) cell was developed. In this assay, inhibition of BTK was detected by the inhibition of DOHH2 cells proliferation. Cells were collected and plated onto 96-well plates at the optimized cell density (5000 cells/well). Plates were incubated at 37° C., with 5% CO2 for 4 h. Compounds were serially diluted and added to the plates with the final concentrations as 10000, 3333.3, 1111.1, 370.4, 123.5, 41.2, 13.7, 4.6 and 1.5 nM. Plates were incubated at 37° C., with 5% CO2 for 120 h. An aliquot of 20 μL MTS/100 μL medium mixture solution were added to each well and the plates were incubated for exactly 2 h. The reaction was stopped by adding 25 μL 10% SDS to each well. The absorbance was measured by a microplate reader at 490 nm and 650 nm (reference wavelength). IC50 was calculated using GraphPad Prism 5.0.
Select compounds prepared as described above were assayed according to the biological procedures described herein.

| SMILES | IC50 (Homo sapiens, DOHH-2, 120 h) [nM] | IC50 (120 h) [nM] |
| --- | --- | --- |
| N#Cc1cnc2[nH]cc(C(=O)c3ccc(Oc4ccccc4)cc3Cl)c2c1N[C@@]12COC(CO)[C@@H]1C2 (single isomer, unassigned) [Example 17] | 43 | – |
| Cc1cc(Oc2ccccc2)ccc1C(=O)c1c[nH]c2ncc(C#N)c(N[C@@]34COC(CO)[C@@H]3C4)c12 (single isomer, unassigned) [Example 19] | – | 88 |
| Cc1cc(Oc2ccccc2)ccc1C(=O)c1c[nH]c2ncc(C#N)c(N[C@@]34COC(CO)[C@@H]3C4)c12 (single isomer, unassigned) [Example 20] | – | 20 |
| COc1cnc2[nH]cc(C(=O)c3ccc(Oc4ccccc4F)cc3C)c2c1N[C@@]12CO[C@H](CO)C1C2 (single isomer, unassigned) [Example 166] | 21 | – |
| COc1cnc2[nH]cc(C(=O)c3ccc(Oc4ccccc4F)cc3C)c2c1N[C@@]12CO[C@H](CO)C1C2 (single isomer, unassigned) [Example 167] | – | 18 |
| COc1cnc2[nH]cc(C(=O)c3ccc(Oc4ccccc4F)cc3F)c2c1N[C@@]12CO[C@H](CO)C1C2 (single isomer, unassigned) [Example 168] | – | 8 |
| COc1cnc2[nH]cc(C(=O)c3ccc(Oc4ccccc4F)cc3F)c2c1N[C@@]12CO[C@H](CO)C1C2 (single isomer, unassigned) [Example 169] | – | 65 |
| CCOc1cnc2[nH]cc(C(=O)c3ccc(Oc4ccccc4F)cc3C)c2c1N[C@@]12CO[C@H](CO)C1C2 (single isomer, unassigned) [Example 170] | – | 12 |
| CCOc1cnc2[nH]cc(C(=O)c3ccc(Oc4ccccc4F)cc3C)c2c1N[C@@]12CO[C@H](CO)C1C2 (single isomer, unassigned) [Example 171] | – | 2 |
| CCOc1cnc2[nH]cc(C(=O)c3ccc(Oc4ccccc4F)cc3F)c2c1N[C@@]12CO[C@H](CO)C1C2 (single isomer, unassigned) [Example 172] | – | 1 |
| CCOc1cnc2[nH]cc(C(=O)c3ccc(Oc4ccccc4F)cc3F)c2c1N[C@@]12CO[C@H](CO)C1C2 (single isomer, unassigned) [Example 173] | – | 7 |
| Cc1cc(Oc2ccccc2F)ccc1C(=O)c1c[nH]c2ncc(F)c(N[C@@]34CO[C@H](CO)C3C4)c12 (single isomer, unassigned) [Example 179] | 1 | – |
| CCOc1cnc2[nH]cc(C(=O)c3ccc(Oc4ccccc4)cc3F)c2c1N[C@@]12CO[C@H](CO)C1C2 (single isomer, unassigned) [Example 181] | – | 1 |
| CCOc1cnc2[nH]cc(C(=O)c3ccc(Oc4ccccc4)cc3F)c2c1N[C@@]12CO[C@H](CO)C1C2 (single isomer, unassigned) [Example 182] | – | 31 |
| O=C(c1ccc(Oc2ccccc2)cc1Cl)c1c[nH]c2ncc(F)c(N[C@@H]3CC[C@@H](CO)OC3)c12 [Example 6, (2-chloro-4-phenoxyphenyl)(5-fluoro-4-(((3R,6S)-6-(hydroxymethyl)tetrahydro-2H-pyran-3-yl)amino)-1H-pyrrolo[2,3-b]pyridin-3-yl)methanone] | 89 | – |
| N#Cc1cnc2[nH]cc(C(=O)c3ccc(Oc4ccccc4)cc3Cl)c2c1N[C@@H]1CC[C@@H](CO)OC1 [Example 7, 3-(2-chloro-4-phenoxybenzoyl)-4-(((3R,6S)-6-(hydroxymethyl)tetrahydro-2H-pyran-3-yl)amino)-1H-pyrrolo[2,3-b]pyridine-5-carbonitrile] | 83 | – |
| O=C(c1ccc(Oc2ccccc2)cc1F)c1c[nH]c2nccc(N[C@@H]3CC[C@@H](CO)OC3)c12 [Example 10, (2-fluoro-4-phenoxyphenyl)(4-(((3R,6S)-6-(hydroxymethyl)tetrahydro-2H-pyran-3-yl)amino)-1H-pyrrolo[2,3-b]pyridin-3-yl)methanone] | 19 | – |

| SMILES | IC50 (Homo sapiens, DOHH-2, 120 h) [nM] | IC50 (120 h) [nM] |
| --- | --- | --- |
| Cc1cc(Oc2ccccc2)ccc1C(=O)c1c[nH]c2ncc(C#N)c(N[C@@H]3CC[C@@H](CO)OC3)c12 [Example 11, 4-(((3R,6S)-6-(hydroxymethyl)tetrahydro-2H-pyran-3-yl)amino)-3-(2-methyl-4-phenoxybenzoyl)-1H-pyrrolo[2,3-b]pyridine-5-carbonitrile] | 60 | – |
| Cc1cc(Oc2ccccc2)ccc1C(=O)c1c[nH]c2nccc(N[C@@H]3CC[C@@H](CO)OC3)c12 [Example 13, (4-(((3R,6S)-6-(hydroxymethyl)tetrahydro-2H-pyran-3-yl)amino)-1H-pyrrolo[2,3-b]pyridin-3-yl)(2-methyl-4-phenoxyphenyl)methanone] | 19 | – |
| Cc1cc(Oc2ccccc2)ccc1C(=O)c1c[nH]c2ncc(F)c(N[C@@H]3CC[C@@H](CO)OC3)c12 [Example 15, (5-fluoro-4-(((3R,6S)-6-(hydroxymethyl)tetrahydro-2H-pyran-3-yl)amino)-1H-pyrrolo[2,3-b]pyridin-3-yl)(2-methyl-4-phenoxyphenyl)methanone] | 85 | – |
| O=C(c1ccc(Oc2ccccc2)cc1)c1c[nH]c2nccc(N[C@@H]3CC[C@@H](CO)OC3)c12 [Example 28, (4-(((3R,6S)-6-(hydroxymethyl)tetrahydro-2H-pyran-3-yl)amino)-1H-pyrrolo[2,3-b]pyridin-3-yl)(4-phenoxyphenyl)methanone] | 32 | – |
| N#Cc1cnc2[nH]cc(C(=O)c3ccc(Oc4ccccc4)cc3)c2c1N[C@@H]1CC[C@@H](CO)OC1 [Example 29, 4-(((3R,6S)-6-(hydroxymethyl)tetrahydro-2H-pyran-3-yl)amino)-3-(4-phenoxybenzoyl)-1H-pyrrolo[2,3-b]pyridine-5-carbonitrile] | 99 | – |
| O=C(c1ccc(Oc2ccccc2F)cc1Cl)c1c[nH]c2nccc(N[C@@H]3CC[C@@H](CO)OC3)c12 [Example 30, (2-chloro-4-(2-fluorophenoxy)phenyl)(4-(((3R,6S)-6-(hydroxymethyl)tetrahydro-2H-pyran-3-yl)amino)-1H-pyrrolo[2,3-b]pyridin-3-yl)methanone] | 21 | – |
| N#Cc1cnc2[nH]cc(C(=O)c3ccc(Oc4ccccc4F)cc3Cl)c2c1N[C@@H]1CC[C@@H](CO)OC1 [Example 32, 3-(2-chloro-4-(2-fluorophenoxy)benzoyl)-4-(((3R,6S)-6-(hydroxymethyl)tetrahydro-2H-pyran-3-yl)amino)-1H-pyrrolo[2,3-b]pyridine-5-carbonitrile] | 15 | – |
| O=C(c1ccc(Oc2ccccc2)c(Cl)c1Cl)c1c[nH]c2nccc(N[C@@H]3CC[C@@H](CO)OC3)c12 [Example 36, (2,3-dichloro-4-phenoxyphenyl)(4-(((3R,6S)-6-(hydroxymethyl)tetrahydro-2H-pyran-3-yl)amino)-1H-pyrrolo[2,3-b]pyridin-3-yl)methanone] | 69 | – |
| N#Cc1cnc2[nH]cc(C(=O)c3ccc(Oc4ccccc4)c(Cl)c3Cl)c2c1N[C@@H]1CC[C@@H](CO)OC1 [Example 37, 3-(2,3-dichloro-4-phenoxybenzoyl)-4-(((3R,6S)-6-(hydroxymethyl)tetrahydro-2H-pyran-3-yl)amino)-1H-pyrrolo[2,3-b]pyridine-5-carbonitrile] | 48 | – |
| Cc1nc(Oc2ccccc2)ccc1C(=O)c1c[nH]c2nccc(N[C@@H]3CC[C@@H](CO)OC3)c12 [Example 41, (4-(((3R,6S)-6-(hydroxymethyl)tetrahydro-2H-pyran-3-yl)amino)-1H-pyrrolo[2,3-b]pyridin-3-yl)(2-methyl-6-phenoxypyridin-3-yl)methanone] | 53 | – |
| O=C(c1c(F)cc(Oc2ccccc2)cc1F)c1c[nH]c2nccc(N[C@@H]3CC[C@@H](CO)OC3)c12 [Example 44, (2,6-difluoro-4-phenoxyphenyl)(4-(((3R,6S)-6-(hydroxymethyl)tetrahydro-2H-pyran-3-yl)amino)-1H-pyrrolo[2,3-b]pyridin-3-yl)methanone] | 7 | – |
| N#Cc1cnc2[nH]cc(C(=O)c3c(F)cc(Oc4ccccc4)cc3F)c2c1N[C@@H]1CC[C@@H](CO)OC1 [Example 45, 3-(2,6-difluoro-4-phenoxybenzoyl)-4-(((3R,6S)-6-(hydroxymethyl)tetrahydro-2H-pyran-3-yl)amino)-1H-pyrrolo[2,3-b]pyridine-5-carbonitrile] | 57 | – |
| Cc1cc(Oc2ccccc2F)ccc1C(=O)c1c[nH]c2nccc(N[C@@H]3CC[C@@H](CO)OC3)c12 [Example 46, (4-(2-fluorophenoxy)-2-methylphenyl)(4-(((3R,6S)-6-(hydroxymethyl)tetrahydro-2H-pyran-3-yl)amino)-1H-pyrrolo[2,3-b]pyridin-3-yl)methanone] | 1 | – |
| Cc1cc(Oc2cccc(F)c2)ccc1C(=O)c1c[nH]c2nccc(N[C@@H]3CC[C@@H](CO)OC3)c12 [Example 47, (4-(3-fluorophenoxy)-2-methylphenyl)(4-(((3R,6S)-6-(hydroxymethyl)tetrahydro-2H-pyran-3-yl)amino)-1H-pyrrolo[2,3-b]pyridin-3-yl)methanone] | 46 | – |
| Cc1cc(Oc2ccccc2F)ccc1C(=O)c1c[nH]c2ncc(C#N)c(N[C@@H]3CC[C@@H](CO)OC3)c12 [Example 48, 3-(4-(2-fluorophenoxy)-2-methylbenzoyl)-4-(((3R,6S)-6-(hydroxymethyl)tetrahydro-2H-pyran-3-yl)amino)-1H-pyrrolo[2,3-b]pyridine-5-carbonitrile] | 1 | – |
| Cc1cc(Oc2cccc(F)c2)ccc1C(=O)c1c[nH]c2ncc(C#N)c(N[C@@H]3CC[C@@H](CO)OC3)c12 [Example 49, 3-(4-(3-fluorophenoxy)-2-methylbenzoyl)-4-(((3R,6S)-6-(hydroxymethyl)tetrahydro-2H-pyran-3-yl)amino)-1H-pyrrolo[2,3-b]pyridine-5-carbonitrile] | 100 | – |

Source: patent US20220235049A1, “SUBSTITUTED PYRROLO [2, 3-b] PYRIDINE AND PYRAZOLO [3,4-b] PYRIDINE DERIVATIVES AS PROTEIN KINASE INHIBITORS” (Fochon Pharmaceuticals, Ltd., priority 2019, published 2022)
